Where “and” joins values, the source holds several entries; their conditions need not be identical. Equal entries are not always repeated.

The series concerns tobacco budworm (Heliothis virescens [Fabricius]). The experiment in a line: surface-treated diet test against tobacco budworm. The conditions noted are these: second instar larvae, five-day exposure. Format: in vivo. The method, then: Candidate insecticides are evaluated for activity against the tobacco budworm (Heliothis virescens [Fabricius]) in a surface-treated diet test.
In this test one mL of molten (65–70° C.) wheat germ-based artificial diet is pipetted into each well of a four by six (24 well) multi-well plate (ID#430345-15.5 mm dia.×17.6 mm deep; Corning Costar Corp., One Alewife Center, Cambridge, Mass. 02140). The diet is allowed to cool to ambient temperature before treatment with candidate insecticide.
For a determination of insecticidal activity, solutions of the candidate insecticides are prepared for testing using a Packard 204DT Multiprobe® Robotic System (Packard Instrument Company, 800 Research Parkway, Meriden, Conn. 06450), in which the robot first dilutes a standard 50 millimolar DMSO solution of candidate insecticide with a 1:1 water/acetone solution (V/V) in a ratio of 1:7 stock solution to water/acetone. The robot subsequently pipettes 40 microliters of the so-prepared solution onto the surface of the diet in each of three wells in the 24 multi-well plate. The process is repeated with solutions of seven other candidate insecticides. Once treated, the contents of the multi-well plate are allowed to dry, leaving 0.25 millimoles of candidate insecticide on the surface of the diet, or a concentration of 0.25 millimolar. Appropriate untreated controls containing only DMSO on the diet surface are also included in this test.
For evaluations of the insecticidal activity of a candidate insecticide at varying rates of application, the test is established as described above using sub-multiples of the standard 50 millimolar DMSO solution of candidate insecticide. For example, the standard 50 millimolar solution is diluted by the robot with DMSO to give 5, 0.5, 0.05, 0.005, 0.0005 millimolar, or more dilute solutions of the candidate insecticide. In these evaluations there are six replicates of each rate of application placed on the surface of the diet in the 24 multi-well plate, for a total of four rates of application of candidate insecticide in each plate.
In each well of the test plate is placed one second instar tobacco budworm larvea, each weighing approximately five milligrams. After the larvae are placed in each well, the plate is sealed with clear polyfilm adhesive tape. The tape over each well is perforated to ensure an adequate air supply. The plates are then held in a growth chamber at 25° C. and 60% relative humidity for five days (light 14 hours/day).
After the five-day exposure period insecticidal activity for each rate of application of candidate insecticide is assessed as percent inhibition of insect weight relative to the weight of insects from untreated controls, and percent mortality when compared to the total number of insects infested.

[1] abbreviates: rate of application 4.6 (negative log of the molar concentration of test compound in the diet).
Where [2] appears, read: rate of application 5.6 (negative log of the molar concentration of test compound in the diet).
The mark [3] stands for this setting: rate of application 6.6 (negative log of the molar concentration of test compound in the diet).
Where [4] appears, read: rate of application 3.6 (negative log of the molar concentration of test compound in the diet).

Turning to `CCN(CC)CCOc1ccc(COCc2ccc(Cl)c3ccccc23)cc1` [Compound 8, (2-(4-(((4-chloronaphthyl)methoxy)methyl)phenoxy)ethyl)diethylamine], the “Percent Growth Inhibition” value under setting [1] is listed as 11%.
For `CCN(CC)CCOc1ccc(CNc2ccc(Cl)c3ccccc23)cc1` [Compound 84, (2-(4-(((4-chloronaphthyl)amino)methyl)phenoxy)ethyl)diethylamine], the “Percent Growth Inhibition” value under setting [2] turned out to be 11%.
Turning to `CC1CCCC(C)N1CCOc1ccc(COc2ccc(Cl)c3ccccc23)cc1` (stereo not drawn) [Compound 106, 1-(2-(2,6-dimethylpiperidyl)ethoxy)-4-((4-chloronaphthyloxy)methyl)benzene], the “Percent Growth Inhibition” value under setting [3] stood at 35%.
As to `CCN(CC)CCOc1ccc(COc2ccc(Cl)c3cc(Cl)ccc23)cc1` [Compound 216, (2-(4-((4,6-dichloronaphthyloxy)methyl)phenoxy)ethyl)diethylamine], the “Percent Growth Inhibition” value under setting [3] stood at 1%.
Still for that read-out and setting: then `CCN(CC)CCOc1ccc(COc2cccc3c(Cl)c(Cl)ccc23)cc1` [Compound 223, (2-(4-((5,6-dichloronaphthyloxy)methyl)phenoxy)ethyl)diethylamine], with 63%.
Consider `CCN(CC)CCOc1ccc(CNc2ccc(Cl)c3ccccc23)cc1OC` [Compound 263, (2-(4-(((4-chloronaphthyl)amino)methyl)-2-methoxyphenoxy)ethyl)diethylamine], for which the “Percent Growth Inhibition” value under setting [2] was 26%.
The same measure, in the same setting: then `CCN(CC)CCOc1ccc(COc2ccc(Cl)c(Cl)c2Cl)cc1` [Compound 308, diethyl(2-(4-((2,3,4-trichlorophenoxy)methyl)phenoxy)ethyl)amine], with 18%.
Take `CCN1CCN(c2ccc(COc3cccc4c(Cl)c(Cl)ccc34)cc2)CC1` [Compound 355, 1,2-dichloro-5-{[4-(4-ethylpiperazinyl)phenyl]methoxy}naphthalene]: the “Percent Growth Inhibition” value was 100% under setting [4], 100% under setting [1], 96% under setting [2] and −2% under setting [3]. Besides, the “Percent Mortality” value runs as follows: under setting [4], 100%; under setting [1], 100%; under setting [2], 17%.
As to “amino(2-(4-((5,6-dichloronaphthyloxy)methyl)phenoxy)ethyl)diethyl-1-one [Compound 183]”, under setting [3], the “Percent Growth Inhibition” value is 28% and 18%.

(Values after patent US7247756B2, “1,4-disubstituted benzenes as insecticides” (Bayer CropScience AG, priority 2000, dated 2007).)
